# Molecular target: T1, BTK enzyme (Homo sapiens, UniProt Q06187)
# T1 construct: purchased Upstate 14-552
# Experiment: In vitro BTK kinase assay: BTK-POLYGAT-LS assay
# Type: biochemical
# Conditions: ATP 10 μM, read-out: IC50 (10uMATP)
# Procedure: The purpose of the BTK in vitro assay is to determine compound potency against BTK through the measurement of IC50. […] For a typical assay, a 24 μL aliquot of a ATP/peptide master mix (final concentration; ATP 10 μM, polyGAT 100 nM) in kinase buffer (10 mM Tris-HCl pH 7.5, 10 mM MgCl2, 200 μM Na3PO4, 5 mM DTT, 0.01% Triton X-100, and 0.2 mg/ml casein) is added to each well. […] The assay is incubated for 30 minutes before being stopped with 28 μL of a 50 mM EDTA solution. […] The plate is covered and incubated for 45 minutes at room temperature.
# T1 sequence (Q06187 whole entry): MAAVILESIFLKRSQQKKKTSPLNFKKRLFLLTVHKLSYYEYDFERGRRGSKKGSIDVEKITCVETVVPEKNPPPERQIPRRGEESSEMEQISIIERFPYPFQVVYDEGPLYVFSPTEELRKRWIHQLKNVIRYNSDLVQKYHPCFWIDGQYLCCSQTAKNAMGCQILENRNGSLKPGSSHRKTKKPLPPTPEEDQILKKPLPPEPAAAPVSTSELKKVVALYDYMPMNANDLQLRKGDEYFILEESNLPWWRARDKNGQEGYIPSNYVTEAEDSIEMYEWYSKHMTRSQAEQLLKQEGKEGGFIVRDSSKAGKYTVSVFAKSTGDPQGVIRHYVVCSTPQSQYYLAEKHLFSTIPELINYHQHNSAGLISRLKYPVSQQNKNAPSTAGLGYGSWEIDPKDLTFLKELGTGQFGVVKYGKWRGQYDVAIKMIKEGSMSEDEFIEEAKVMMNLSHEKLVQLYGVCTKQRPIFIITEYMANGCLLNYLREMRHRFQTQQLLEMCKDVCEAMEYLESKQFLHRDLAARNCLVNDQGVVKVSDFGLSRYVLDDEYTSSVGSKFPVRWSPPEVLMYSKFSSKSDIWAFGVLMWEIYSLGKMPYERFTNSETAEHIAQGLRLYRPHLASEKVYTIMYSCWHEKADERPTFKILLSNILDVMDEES
row,Compound,IC50
1,"Cc1cc(-c2ccnc(NC3CCN(C)CC3)n2)ccc1CNC(=O)c1cnc(C(C)(C)C)s1 [Example I-25, 2-(tert-butyl)-N-(2-methyl-4-(2-((1-methylpiperidin-4-yl)amino)pyrimidin-4-yl)benzyl)thiazole-5-carboxamide]",1 to 10 µM
2,"Cc1cc(-c2ccnc(NC3CCOCC3)n2)ccc1CNC(=O)c1cnc(C(C)(C)C)s1 [Example I-26, 2-(tert-butyl)-N-(2-methyl-4-(2-((tetrahydro-2H-pyran-4-yl)amino)pyrimidin-4-yl)benzyl)thiazole-5-carboxamide]",1 to 10 µM
3,"Cc1cc(-c2ccnc(N[C@H](C)C3CCCCC3)n2)ccc1CNC(=O)c1cnc(C(C)(C)C)s1 [Example I-27, (R)-2-(tert-butyl)-N-(4-(2-((1-cyclohexylethyl)amino)pyrimidin-4-yl)-2-methylbenzyl)thiazole-5-carboxamide]",> 10 µM
4,"Cc1cc(-c2ccnc(N[C@@H](C)C3CCCCC3)n2)ccc1CNC(=O)c1cnc(C(C)(C)C)s1 [Example I-28, (S)-2-(tert-butyl)-N-(4-(2-((1-cyclohexylethyl)amino)pyrimidin-4-yl)-2-methylbenzyl)thiazole-5-carboxamide]",> 10 µM
5,"Cc1cc(-c2ccnc(NC(C)c3ccncc3)n2)ccc1CNC(=O)c1cnc(C(C)(C)C)s1 (stereo not drawn) [Example I-29, 2-(tert-butyl)-N-(2-methyl-4-(2-((1-(pyridin-4-yl)ethyl)amino)pyrimidin-4-yl)benzyl)thiazole-5-carboxamide]",1 to 10 µM
6,"Cc1cc(-c2ccnc(NC3CCS(=O)(=O)CC3)n2)ccc1CNC(=O)c1cnc(C(C)(C)C)s1 [Example I-30, 2-(tert-butyl)-N-(4-(2-((1,1-dioxidotetrahydro-2H-thiopyran-4-yl)amino)pyrimidin-4-yl)-2-methylbenzyl)thiazole-5-carboxamide]",1 to 10 µM
7,"Cc1cc(-c2ccnc(NCC3CCS(=O)(=O)CC3)n2)ccc1CNC(=O)c1cnc(C(C)(C)C)s1 [Example I-31, 2-(tert-butyl)-N-(4-(2-(((1,1-dioxidotetrahydro-2H-thiopyran-4-yl)methyl)amino)pyrimidin-4-yl)-2-methylbenzyl)thiazole-5-carboxamide]",0.1 to 0.999 µM
8,"Cc1cc(-c2ccnc(NCc3ccncc3)n2)ccc1CNC(=O)c1cnc(C(C)(C)C)s1 [Example I-32, 2-(tert-butyl)-N-(2-methyl-4-(2-((pyridin-4-ylmethyl)amino)pyrimidin-4-yl)benzyl)thiazole-5-carboxamide]",0.1 to 0.999 µM
9,"CCNc1nccc(-c2ccc(CNC(=O)c3cnc(C(C)(C)C)s3)c(C)c2)n1 [Example I-34, 2-(tert-butyl)-N-(4-(2-(ethylamino)pyrimidin-4-yl)-2-methylbenzyl)thiazole-5-carboxamide]",0.01 to 0.099 µM
10,"Cc1cc(-c2ccnc(NC(C)C)n2)ccc1CNC(=O)c1cnc(C(C)(C)C)s1 [Example I-35, 2-(tert-butyl)-N-(4-(2-(isopropylamino)pyrimidin-4-yl)-2-methylbenzyl)thiazole-5-carboxamide]",1 to 10 µM
11,"Cc1nnc(Nc2nccc(-c3ccc(CNC(=O)c4cnc(C(C)(C)C)s4)c(C)c3)n2)s1 [Example I-59, 2-(tert-butyl)-N-(2-methyl-4-(2-((5-methyl-1,3,4-thiadiazol-2-yl)amino)pyrimidin-4-yl)benzyl)thiazole-5-carboxamide]",0.01 to 0.099 µM

# Other lines, results leading:
row,IC50,Compound
1,< 0.01 µM,"Cc1cc(-c2ccnc(Nc3cnn(C)c3)n2)ccc1CNC(=O)c1ccc(Cl)c(Cl)c1 [Example I-8, 3,4-dichloro-N-(2-methyl-4-(2-((1-methyl-1H-pyrazol-4-yl)amino)pyrimidin-4-yl)benzyl)benzamide]"
2,0.01 to 0.099 µM,"Cc1cc(-c2ccnc(Nc3cnn(C)c3)n2)ccc1CNC(=O)[C@H]1CC[C@H](C(F)(F)F)CC1 [Example I-11, trans-N-(2-methyl-4-(2-((1-methyl-1H-pyrazol-4-yl)amino)pyrimidin-4-yl)benzyl)-4-(trifluoromethyl)cyclohexanecarboxamide]"
3,0.01 to 0.099 µM,"Cc1cc(-c2ccnc(Nc3cnn(C)c3)n2)ccc1CNC(=O)c1cc2c(s1)CCNC2C (stereo not drawn) [Example I-14, 4-methyl-N-(2-methyl-4-(2-((1-methyl-1H-pyrazol-4-yl)amino)pyrimidin-4-yl)benzyl)-4,5,6,7-tetrahydrothieno[3,2-c]pyridine-2-carboxamide]"
4,> 10 µM,"Cc1cc(-c2ccnc(Nc3cnn(C)c3)n2)ccc1CNC(=O)C1CCN(C)CC1 [Example I-16, 1-methyl-N-(2-methyl-4-(2-((1-methyl-1H-pyrazol-4-yl)amino)pyrimidin-4-yl)benzyl)piperidine-4-carboxamide]"
5,0.1 to 0.999 µM,"Cc1cc(-c2ccnc(Nc3cnn(C)c3)n2)ccc1CNC(=O)[C@H]1CC[C@@H](C(F)(F)F)CC1 [Example I-17, cis-N-(2-methyl-4-(2-((1-methyl-1H-pyrazol-4-yl)amino)pyrimidin-4-yl)benzyl)-4-(trifluoromethyl)cyclohexanecarboxamide]"
6,0.1 to 0.999 µM,"Cc1cc(-c2ccnc(Nc3cnn(C)c3)n2)ccc1CNC(=O)c1cnoc1C [Example I-18, 5-methyl-N-(2-methyl-4-(2-((1-methyl-1H-pyrazol-4-yl)amino)pyrimidin-4-yl)benzyl)isoxazole-4-carboxamide]"
7,0.01 to 0.099 µM,"Cc1cc(-c2ccnc(Nc3cnn(C)c3)n2)ccc1CNC(=O)NC12CCC(CC1)CC2 [Example I-22, 1-(bicyclo[2.2.2]octan-1-yl)-3-(2-methyl-4-(2-((1-methyl-1H-pyrazol-4-yl)amino)pyrimidin-4-yl)benzyl)urea]"
8,0.1 to 0.999 µM,"CNc1nccc(-c2ccc(CNC(=O)c3cnc(C(C)(C)C)s3)c(C)c2)n1 [Example I-33, 2-(tert-butyl)-N-(2-methyl-4-(2-(methylamino)pyrimidin-4-yl)benzyl)thiazole-5-carboxamide]"
9,0.1 to 0.999 µM,"Cc1cc(-c2ccnc(Nc3c(C)nn(C)c3C)n2)ccc1CNC(=O)c1cnc(C(C)(C)C)s1 [Example I-53, 2-(tert-butyl)-N-(2-methyl-4-(2-((1,3,5-trimethyl-1H-pyrazol-4-yl)amino)pyrimidin-4-yl)benzyl)thiazole-5-carboxamide]"
10,< 0.01 µM,"Cc1cc(-c2ccnc(Nc3conc3C)n2)ccc1CNC(=O)c1cnc(C(C)(C)C)s1 [Example I-57, 2-(tert-butyl)-N-(2-methyl-4-(2-((3-methylisoxazol-4-yl)amino)pyrimidin-4-yl)benzyl)thiazole-5-carboxamide]"
11,0.01 to 0.099 µM,"Cc1cc(-c2ccnc(Nc3cn(C)nn3)n2)ccc1CNC(=O)c1cnc(C(C)(C)C)s1 [Example I-58, 2-(tert-butyl)-N-(2-methyl-4-(2-((1-methyl-1H-1,2,3-triazol-4-yl)amino)pyrimidin-4-yl)benzyl)thiazole-5-carboxamide]"
12,0.01 to 0.099 µM,"Cc1cc(-c2ccnc(Nc3ccccn3)n2)ccc1CNC(=O)c1cnc(C(C)(C)C)s1 [Example I-60, 2-(tert-butyl)-N-(2-methyl-4-(2-(pyridin-2-ylamino)pyrimidin-4-yl)benzyl)thiazole-5-carboxamide]"
13,0.01 to 0.099 µM,"Cc1cc(-c2ccnc(Nc3ccc(N(C)C)cn3)n2)ccc1CNC(=O)c1cnc(C(C)(C)C)s1 [Example I-61, 2-(tert-butyl)-N-(4-(2-((5-(dimethylamino)pyridin-2-yl)amino)pyrimidin-4-yl)-2-methylbenzyl)thiazole-5-carboxamide]"

# — patent US10759783B2, “Biaryl inhibitors of Bruton'S tyrosine kinase” (BIOGEN MA INC., priority 2013, dated 2020)
